The source of these data is patent US6420419B1, “L-ascorbic acid 2-phosphate zinc salt and process for manufacturing the same” (Showa Denko Kabushiki Kaisha, priority 1997, dated 2002).

The structures appear in SMILES notation.

One data set has as its system B. subtilis (168 strain). Description: Antimicrobial effect, turbidity in NUTRIENT BROTH. As to conditions: 0.1% salt, pH 6.8, about 10^7 cells/ml, 37° C. for 24 hours. The format is cell-based. Further details: key: “+” indicates that turbidity increased after incubation; “−” indicates no increase in turbidity. As for the experimental part:
(§1) To NUTRIENT BROTH (produced by DIFCO), 0.1% of an L-ascorbic acid 2-phosphate salt was added thereto, and the pH was adjusted to 6.8 using hydrochloric acid or sodium hydroxide. Using 5 ml of the medium thus prepared, test bacterium were inoculated in a concentration of about 10^7 cells/ml and incubated in a test tube at 37° C. for 24 hours. […] As a control, the same test was performed using a medium not containing an L-ascorbic acid 2-phosphate salt.

The next data set deals with E. coli (K-12 strain). As to the kind of experiment: Antimicrobial effect, turbidity in NUTRIENT BROTH. Type of data set: cell-based. Also noted: key: “+” indicates that turbidity increased after incubation; “−” indicates no increase in turbidity. Particulars: 0.1% salt, pH 6.8, about 10^7 cells/ml, 37° C. for 24 hours. As for the experimental part:
as §1

The nature of data set [1]: Stability in buffer solution, storage at 50° C. for 476 hours, HPLC. Particulars: for Stability (100% = concentration before storage) pH: 8: about 0.1% in 50 mM Tris-HCl, pH: 8, stored at 50° C. for 476 hours; for Stability (100% = concentration before storage) pH: 5: about 0.1% in 50 mM acetic acid-NaOH, pH: 5, stored at 50° C. for 476 hours. Type of data set: physicochemical. Here is the method:
In the Examples and Test Examples, the analysis of an L-ascorbic acid 2-phosphate salt or an ion thereof was performed using an Ap-containing solution having a known concentration (prepared from L-ascorbic acid 2-phosphate magnesium salt) as a standard by an HPLC method using a Shodex IEC DEAE-825 resin (ammonium acetate 10 mM→1M gradient, detected spectrophotometrically at 265 nm). The elemental analysis was performed by an ICP emission method, flame photometry and an ion chromatography method. Unless otherwise indicated, the reagents used herein were commercially available reagents.
The stability of L-ascorbic acid 2-phosphate zinc salt was compared to that of L-ascorbic acid 2-phosphate magnesium salt. Each salt was dissolved in a buffer solution (50 mM acetic acid-NaOH, pH: 5, or 50 mM Tris-HCl, pH: 8). to a concentration of about 0.1% and stored at 50° C. for 476 hours. The concentrations of the L-ascorbic acid 2-phosphate before and after storage were analyzed by the HPLC method.

The conditions of data set [2]: in water; background statement on conventionally known salts; cited from earlier work.
The nature of the next data set: Solubility in water. The format is physicochemical.
The mark [3] stands for this setting: listed as L-ascorbic acid 2-phosphate zinc salt (Example 2).
The mark [4] stands for this setting: listed as L-ascorbic acid 2-phosphate zinc salt (Example 1).

As to `O=C1O[C@H]([C@@H](O)CO)C(O)=C1OP(=O)([O-])[O-].[Mg+2]` [L-ascorbic acid 2-phosphate magnesium salt], the “Increase in turbidity after incubation, B. subtilis (168 strain)” value (“Increase in turbidity … (168 strain)” below) in the data set with B. subtilis (168 strain) is reported as “+”. Further, the “Increase in turbidity after incubation, E. coli (K-12 strain)” value (“Increase in turbidity … (K-12 strain)” below) in the data set on E. coli (K-12 strain) was “+”. Moreover, in data set [1], the “Stability (100% = concentration before storage) pH: 8” value was 95% and the “Stability (100% = concentration before storage) pH: 5” value stood at 82%. In data set [2], the “Concentration of aqueous solution that can be formed” value was under 30%.

As for `O=C1O[C@H]([C@@H](O)CO)C(O)=C1OP(=O)([O-])[O-].[Zn+2]` [L-ascorbic acid 2-phosphate zinc salt], the “Concentration of aqueous solution easily formed” value in “Solubility in water” is at least 50 wt %.

For `O=C1O[C@H]([C@@H](O)CO)C(O)=C1OP(=O)([O-])[O-].[Zn+2]` [Example 2, L-ascorbic acid 2-phosphate zinc salt], in data set [1] (setting [3]), the “Stability (100% = concentration before storage) pH: 8” value is 95% and the “Stability (100% = concentration before storage) pH: 5” value is 92%.

With `O=C1O[C@H]([C@@H](O)CO)C(O)=C1OP(=O)([O-])[O-].[Zn+2]` [Example 1, L-ascorbic acid 2-phosphate zinc salt], the “Increase in turbidity … (168 strain)” value in the data set with B. subtilis (168 strain) is “−”. Besides, the “Increase in turbidity … (K-12 strain)” value in the data set with E. coli (K-12 strain) is reported as “−”. Moreover, in data set [1] (setting [4]), the “Stability (100% = concentration before storage) pH: 8” value is 93% and the “Stability (100% = concentration before storage) pH: 5” value is 91%.

As to `O=C1O[C@H]([C@@H](O)CO)C(O)=C1OP(=O)([O-])[O-].[Na+].[Na+]` [Sodium salt, Sodium L-ascorbic acid 2-phosphate], the “Increase in turbidity … (168 strain)” value in the data set with B. subtilis (168 strain) is reported as “+”. In the data set with E. coli (K-12 strain), the “Increase in turbidity … (K-12 strain)” value is reported as “+”. In addition, the “Concentration of aqueous solution that can be formed” value in data set [2] is given as “about 30%”.
